Results published in patent publication US6495699B2, “Metalloproteinase inhibitors, pharmaceutical compositions containing them, and their use” (Agouron Pharmaceuticals Inc., priority 1996, dated 2002).
pKi: −log10 of the molar value.

Legend:
[1] = target: T1, catalytic domain of human stromelysin (Hsln) (Homo sapiens, UniProt P08254); assay: Fluorometric MCA-peptide hydrolysis assay, stromelysin (Hsln); format: biochemical; conditions: apparent Ki; 10 μM MCA peptide substrate, 37° C., pH 7.5; read-out: Hsln (Ki,app)
T1 construct: The catalytic domain of human stromelysin (Hsln) was obtained by expression and purification of a C-terminally truncated prostromelysin-1; made in house; host or cells: E. coli BL21
T1 sequence (P08254 100-272 limits assumed): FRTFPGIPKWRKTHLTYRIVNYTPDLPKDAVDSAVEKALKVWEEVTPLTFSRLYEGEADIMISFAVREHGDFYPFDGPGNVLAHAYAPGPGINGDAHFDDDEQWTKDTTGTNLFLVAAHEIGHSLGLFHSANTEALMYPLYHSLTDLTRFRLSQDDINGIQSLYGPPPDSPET
Method in brief: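 APMA-activated E. coli–expressed catalytic domain, with 10 μM MCA-Pro-Leu-Gly-Leu-DPA-Ala-Arg-NH2 at 37 °C. Buffer was pH 7.5 Tricine with NaCl, CaCl2, zinc acetate and 2% final DMSO; fluorescence read at ex 328/em 393 nm over 60 min. Ki,app from steady-state rates fitted to competitive or Morrison tight-binding equations.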

[2] = target: T2, fibroblast collagenase-1 catalytic domain (HFC) (Homo sapiens, UniProt P03956); assay: Fluorometric MCA-peptide hydrolysis assay, fibroblast collagenase-1 (HFC); format: biochemical; conditions: apparent Ki; 10 μM MCA peptide substrate, 37° C., pH 7.5; read-out: HFC (Ki,app)
T2 construct: The catalytic domain of human collagenase-1 was expressed as a fusion protein with ubiquitin in E. coli; ubiquitin (cleaved yes); made in house; host or cells: E. coli
T2 sequence (P03956 100-269 limits assumed): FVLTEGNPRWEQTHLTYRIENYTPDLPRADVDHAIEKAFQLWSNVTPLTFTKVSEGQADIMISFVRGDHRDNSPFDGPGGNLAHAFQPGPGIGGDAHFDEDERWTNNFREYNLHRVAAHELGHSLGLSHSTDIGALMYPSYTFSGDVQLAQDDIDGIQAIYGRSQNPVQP
Method in brief: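 Human collagenase-1 catalytic domain, expressed in E. coli as ubiquitin fusion, was assayed with 10 μM MCA-Pro-Leu-Gly-Leu-DPA-Ala-Arg-NH2 at 37 °C in Tricine pH 7.5, 2% DMSO, over 60 min (ex 328/em 393 nm). Ki,app came from steady-state rates fitted to competitive or Morrison tight-binding equations.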

[3] = target: T3, human progelatinase A (GelA), catalytic and fibronectin-like portion (Homo sapiens, UniProt P08253); assay: Fluorometric MCA-peptide hydrolysis assay, gelatinase A (GelA); format: biochemical; conditions: apparent Ki; 10 μM MCA peptide substrate, 37° C., pH 7.5
T3 construct: The catalytic and fibronectin-like portion of human progelatinase A (GelA) was expressed as a fusion protein with ubiquitin; ubiquitin; made in house; host or cells: E. coli
T3 sequence (P08253 110-465 limits assumed): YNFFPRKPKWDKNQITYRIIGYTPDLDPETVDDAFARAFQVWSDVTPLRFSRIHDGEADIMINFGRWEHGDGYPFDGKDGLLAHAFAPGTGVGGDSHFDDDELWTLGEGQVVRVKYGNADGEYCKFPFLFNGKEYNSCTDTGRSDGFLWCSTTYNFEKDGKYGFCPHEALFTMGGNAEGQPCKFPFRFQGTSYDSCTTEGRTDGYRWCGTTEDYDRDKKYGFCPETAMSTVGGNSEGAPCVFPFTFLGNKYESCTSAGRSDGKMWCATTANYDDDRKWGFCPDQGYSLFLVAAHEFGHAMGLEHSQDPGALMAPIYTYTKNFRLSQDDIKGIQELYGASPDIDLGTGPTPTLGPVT
Method in brief: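 E. coli-expressed ubiquitin fusion of human proGelA catalytic plus fibronectin-like domains, autoactivated; 10 μM MCA-Pro-Leu-Gly-Leu-DPA-Ala-Arg-NH2, pH 7.5 Tricine/NaCl/CaCl2/Zn buffer, 2% DMSO, 37° C, 60 min. Fluorescence 328/393 nm; steady-state rates fitted to competitive inhibition or Morrison tight-binding equation giving Ki,app (≈Ki since [S]<<Km).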

[4] = LogP; format: physicochemical
[5] = Determination of inhibitor concentration in plasma after oral dosing; format: in vivo, Sprague Dawley rats; conditions: Sprague-Dawley, rat plasma, dose 50 mg/kg, vehicle B (60% aq. propylene glycol)
Description: The dosing solution consisted of the inhibitor dissolved in either a molar equivalent of HCl in water (vehicle A), in 60% aq. propylene glycol (vehicle B), or in 2.8 mg/mL sodium bicarbonate in 60% aqueous propylene glycol (vehicle C), yielding a final concentration that ranged from 10-15 mg/ml. Sprague Dawley rats (Hilltop Lab Animals, Scottsdale, Pa.) were dosed as a function of drug weight per body weight, usually 50 mgper kg. Blood was taken from the rats and centrifuged, and the plasma was stored in the freezer. Drug was extracted from a 50 μl plasma aliquot by adding 1 ml of acetonitrile, shaking for 2 minutes, centrifuging for 15 minutes at 4000 rpm, collecting the supernatant, and then evaporating it to dryness under a stream of nitrogen. The samples were reconstituted with 130 μl of mobile phase, shook for 2 minutes, and centrifuged for 15 minutes at 4000 rpm. The supernatant was collected and the samples were analyzed by injecting 100 μl of supernatant onto HPLC.
Quantitation of drug levels was accomplished by generating a standard curve of known drug amounts that were extracted from added plasma. Drug levels were plotted as a function of time and analyzed to provide area under the curve (AUC) and maximum concentration (Cmax) values.

`CNC(=O)[C@@H](NC(=O)[C@@H](CC(=O)O)n1ccc(-c2ccc(-c3ccc(C#N)cc3)cc2)c1)C(C)(C)C` [Example 5(c), 3(R)-[3-(4′-Cyanobiphenyl-4-yl)-1H-pyrrol-1-yl]-N-[2,2-dimethyl-1(S)-(methylcarbamoyl)propyl]succinamic Acid] showed a pKi [1] of 8.82, a pKi [2] of 5.82 and a GelA (Ki,app) [3] of 0.041 nM. The logP [4] was 3.41, the AUC [5] was 1220 ng·h/mL and the Cmax [5] was 410 ng/mL. For the same compound, the melting point was 142 to 144 °C.
